This note sets out measurements from article PMC314469, “Protein Interaction Networks by Proteome Peptide Scanning” (PLoS Biology, 2004).

This assay has as its system Myo5 SH3 domain. The assay can be described thus: SPOT analysis of cellulose-bound peptides (WISE), Myo5 SH3 domain (Dataset S4). In kind it is binding, Saccharomyces cerevisiae. The following applies: for The normalized value in BLU units: Myo5 SH3 domain.
The mark [1] stands for this setting: SPOT analysis of membrane-synthesized peptides probed with Myo5 SH3 domain, normalized value.
The mark [2] stands for this setting: SPOT analysis of membrane-bound peptides, normalized value (see methods).
Where [3] appears, read: SPOT analysis of cellulose-bound 14-mer yeast proteome peptides, normalized value, mean where the peptide was synthesized more than once.
Setting [4] is: SPOT analysis of cellulose-bound peptides probed with Myo5 SH3 domain, normalized value.

For the sequence MKAYRANPPLPIDS, the “The normalized value in BLU units (SPOT analysis, Myo5 SH3)” value under setting [1] is reported as 123.1 BLU.

Turning to VDSFKYEPLAPGND, the “The normalized value in BLU units” value under setting [2] is given as 134.0 BLU.

Take SKIPKSIPIIPYVL: under setting [1], the “The normalized value in BLU units (SPOT analysis, Myo5 SH3)” value turned out to be 243.1 BLU.

On to ELAEFTDPSCPVSE, for which, under setting [3], the “The normalized value in BLU units” value came out at 188.9 BLU.

With STDHRGTPANPGRV, the “The normalized value in BLU units (SPOT analysis, Myo5 SH3)” value under setting [1] is reported as 257.1 BLU.

Consider TTRRKKDPNAPKRR, for which the “The normalized value in BLU units” value under setting [2] is on record as 999.1 BLU.

IPYEKRDPTSPAPL: the “The normalized value in BLU units (SPOT analysis, Myo5 SH3)” value under setting [1] was 114.1 BLU.

Regarding LPAVFSAPIRPDIV, under setting [3], the “The normalized value in BLU units” value was determined as 201.8 BLU.

With TASGKTSPILPLQN, under setting [2], the “The normalized value in BLU units” value was found to be 290.5 BLU.

For the sequence DKIFKTDPNEPAND, the “The normalized value in BLU units (SPOT analysis, Myo5 SH3)” value under setting [1] was 99.1 BLU.

As for LIWHKNKPTEPDNK, the “The normalized value in BLU units (SPOT analysis, Myo5 SH3)” value under setting [1] is 155.4 BLU.

With MYGSKFIPFGPKCQ, the “The normalized value in BLU units (SPOT analysis, Myo5 SH3)” value under setting [1] was 289.9 BLU.

Consider REASLDIPYKPIIA, for which the “The normalized value in BLU units” value under setting [3] was 176.1 BLU.

For the sequence AGLYKLSPLYPFDV, under setting [1], the “The normalized value in BLU units (SPOT analysis, Myo5 SH3)” value is 133.2 BLU.

As to LTKIRRRPQQPLTD, under setting [1], the “The normalized value in BLU units (SPOT analysis, Myo5 SH3)” value is listed as 393.3 BLU.

Regarding GEYDLIMPIYPYRL, under setting [3], the “The normalized value in BLU units” value came to 242.0 BLU.

On to RRLKKNLPSLPTPV, for which the “The normalized value in BLU units” value under setting [3] is on record as 823.8 BLU.

Regarding SLKNRDGPITPSTI, under setting [3], the “The normalized value in BLU units” value is listed as 215.1 BLU.

With PPPPMGQPKDPKFE, the “The normalized value in BLU units (SPOT analysis, Myo5 SH3)” value under setting [4] stood at 248.1 BLU.

Regarding CRHLKLVPSTPMDI, the “The normalized value in BLU units” value under setting [2] was 361.8 BLU.

As for KDKARGNPEKPPYW, the “The normalized value in BLU units” value under setting [2] is given as 59.9 BLU.

For TPQSRFPPYSPLLP, the “The normalized value in BLU units” value under setting [2] was found to be 442.7 BLU.

For the sequence LTSFKGRPKPPKTL, the “The normalized value in BLU units” value under setting [2] was found to be 327.7 BLU.

On to IFFKLIHPFLPILH, for which the “The normalized value in BLU units” value under setting [3] came out at 503.3 BLU.

As to NSFRKILPQEPEIW, under setting [2], the “The normalized value in BLU units” value is reported as 235.4 BLU.

In the case of TLNDRQIPLSPDQM, under setting [2], the “The normalized value in BLU units” value was 73.6 BLU.

Regarding DDIIKDHPHIPNGQ, the “The normalized value in BLU units” value under setting [2] is given as 57.8 BLU.

Consider APKKWKAPKGPKPT, for which the “The normalized value in BLU units” value under setting [3] stood at 1010.5 BLU.

On to NITEKSPPKSPKHK, for which the “The normalized value in BLU units” value under setting [2] is listed as 292.3 BLU.

Turning to WLDEKRIPSTPVDY, under setting [2], the “The normalized value in BLU units” value amounted to 240.0 BLU.

As to KPSVMKLPPSPKQP, the “The normalized value in BLU units (SPOT analysis, Myo5 SH3)” value under setting [4] turned out to be 380.5 BLU.

As to LTSVKIVPQRPISD, under setting [3], the “The normalized value in BLU units” value is 89.0 BLU.

Regarding LITDKEYPVRPAYT, the “The normalized value in BLU units (SPOT analysis, Myo5 SH3)” value under setting [1] is 136.3 BLU.

Turning to DFSSYGPPGTPGYD, the “The normalized value in BLU units (SPOT analysis, Myo5 SH3)” value under setting [4] stood at 108.5 BLU.

With DLKEFNGPEPPIKR, the “The normalized value in BLU units (SPOT analysis, Myo5 SH3)” value under setting [4] is listed as 125.6 BLU.

For the sequence HPIHLQPPVPPVYK, the “The normalized value in BLU units” value under setting [3] came out at 317.7 BLU.

Take GFVFFIAPHLPVDL: under setting [3], the “The normalized value in BLU units” value turned out to be 507.5 BLU.

With FLALFSDPARPFLT, under setting [4], the “The normalized value in BLU units (SPOT analysis, Myo5 SH3)” value was found to be 451.5 BLU.

Consider ILVPHLDPIDPWEA, for which the “The normalized value in BLU units” value under setting [3] stood at 166.0 BLU.

With PPPDFNDPTAPLSS, the “The normalized value in BLU units” value under setting [3] worked out at 152.8 BLU.

In the case of GLDLKWEPSTPQRK, under setting [2], the “The normalized value in BLU units” value is reported as 164.4 BLU.

Turning to AEIVKLTPKNPFYK, the “The normalized value in BLU units (SPOT analysis, Myo5 SH3)” value under setting [1] came to 102.1 BLU.

LASDKGLPMIPAFV: the “The normalized value in BLU units (SPOT analysis, Myo5 SH3)” value under setting [1] stood at 79.9 BLU.

Regarding KFTDMQVPKGPVCP, under setting [4], the “The normalized value in BLU units (SPOT analysis, Myo5 SH3)” value is reported as 197.0 BLU.

As for SFVHLTEPSQPLSD, the “The normalized value in BLU units (SPOT analysis, Myo5 SH3)” value under setting [4] turned out to be 99.7 BLU.

With ALRKFGYPFSPNDP, the “The normalized value in BLU units” value under setting [3] was determined as 166.2 BLU.

With ASKHKMFPFNPAKI, the “The normalized value in BLU units” value under setting [2] was found to be 953.1 BLU.

In the case of TDLGKDIPFFPSSE, the “The normalized value in BLU units” value under setting [2] is listed as 146.5 BLU.

In the case of PSHYRNIPYNPATF, the “The normalized value in BLU units” value under setting [2] was found to be 174.8 BLU.

As for LNTMKKRPAPPSLP, the “The normalized value in BLU units (SPOT analysis, Myo5 SH3)” value under setting [1] was determined as 22346.5 BLU.

Take HFNDLQSPAQPQQS: the “The normalized value in BLU units (SPOT analysis, Myo5 SH3)” value under setting [4] was found to be 92.5 BLU.

For the sequence LSKVRGRPMYPRPA, the “The normalized value in BLU units” value under setting [2] amounted to 752.4 BLU.

DLSLRYAPNLPRVI: the “The normalized value in BLU units” value under setting [2] is reported as 249.6 BLU.

Consider KNIIKYVPWGPPLE, for which the “The normalized value in BLU units” value under setting [3] was determined as 164.4 BLU.

In the case of APQPHLLPWLPPTD, the “The normalized value in BLU units” value under setting [3] was 117.4 BLU.

Regarding TPTPHPHPHTPHPH, the “The normalized value in BLU units” value under setting [3] amounted to 157.9 BLU.

For TINSRFYPPIPISE, under setting [1], the “The normalized value in BLU units (SPOT analysis, Myo5 SH3)” value is on record as 76.4 BLU.

Regarding YDLTRFLPNHPGGQ, the “The normalized value in BLU units” value under setting [2] is 80.6 BLU.

As for HRLFKCTPGLPKLW, the “The normalized value in BLU units” value under setting [2] is 266.0 BLU.

With SERRKALPKEPKKL, the “The normalized value in BLU units (SPOT analysis, Myo5 SH3)” value under setting [1] was determined as 200.0 BLU.
